According to the supplement of paper PMC5908809:

Assays:
[1] = tested on: normal NK cells expanded with K562-aAPC; experiment: percent inhibition of viability; higher = more inhibition; details: 72 h, IL-2 2.5 ng/mL
Method: (§1)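 Drug sensitivity and resistance testing on K562-aAPC-expanded normal NK cells: 5 concentrations (10-fold steps over a 10,000-fold range), 72 h at 37 °C, viability by CellTiter-Glo normalised to DMSO and benzethonium chloride controls; DSS from the fitted curve.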

DERL-7 (IL-2 2.5 ng/mL) [2] = experiment: as above; details: 72 h
IMC-1 (IL-2 20 ng/mL) [3] = experiment: as above; details: 72 h
KAI3 (IL-2 2.5 ng/mL) [4] = experiment: as above; details: 72 h
KHYG-1 (IL-2 2.5 ng/mL) [5] = experiment: as above; details: 72 h
NK-92 (IL-2 2.5 ng/mL) [6] = experiment: as above; details: 72 h
NK-YS (IL-2 2.5 ng/mL) [7] = experiment: as above; details: 72 h
NKL (IL-2 2.5 ng/mL) [8] = experiment: as above; details: 72 h
SNK-6 (IL-2 2.5 ng/mL) [9] = experiment: as above; details: 72 h
YT (IL-2 2.5 ng/mL) [10] = experiment: as above; details: 72 h
[11] = tested on: normal primary NK cells, pool 1 (3 donors) (IL-2 2.5 ng/mL); experiment: as above; details: 72 h
[12] = tested on: normal primary NK cells, pool 1 (3 donors), resting (IL-2 0 ng/mL); experiment: as above; details: 72 h
[13] = tested on: normal primary NK cells, pool 2 (3 donors) (IL-2 2.5 ng/mL); experiment: as above; details: 72 h
[14] = tested on: normal primary NK cells, pool 3 (3 donors) (IL-2 2.5 ng/mL); experiment: as above; details: 72 h
[15] = tested on: normal NK cells expanded with K562-aAPC; experiment: drug sensitivity score (DSS) (DSS units); higher = more sensitive; extreme values may be limits of the assay; details: 72 h; IL-2 2.5 ng/mL
Method: as §1

DERL-7 (IL-2 2.5 ng/mL) [16] = experiment: as above; details: 72 h
IMC-1 (IL-2 20 ng/mL) [17] = experiment: as above; details: 72 h
KAI3 (IL-2 2.5 ng/mL) [18] = experiment: as above; details: 72 h
KHYG-1 (IL-2 2.5 ng/mL) [19] = experiment: as above; details: 72 h
NK-92 (IL-2 2.5 ng/mL) [20] = experiment: as above; details: 72 h
NK-YS (IL-2 2.5 ng/mL) [21] = experiment: as above; details: 72 h
NKL (IL-2 2.5 ng/mL) [22] = experiment: as above; details: 72 h
SNK-6 (IL-2 2.5 ng/mL) [23] = experiment: as above; details: 72 h
YT (IL-2 2.5 ng/mL) [24] = experiment: as above; details: 72 h
[25] = tested on: normal primary NK cells, pool 1 (3 donors) (IL-2 2.5 ng/mL); experiment: as above; details: 72 h
[26] = tested on: normal primary NK cells, pool 1 (3 donors), resting (IL-2 0 ng/mL); experiment: as above; details: 72 h
[27] = tested on: normal primary NK cells, pool 2 (3 donors) (IL-2 2.5 ng/mL); experiment: as above; details: 72 h
[28] = tested on: normal primary NK cells, pool 3 (3 donors) (IL-2 2.5 ng/mL); experiment: as above; details: 72 h

Oc1ncnc2[nH]ncc12 [Allopurinol] (max concentration tested 10000 nM)
percent inhibition of viability [%]
Details	1 nM	10 nM	100 nM	1000 nM	10000 nM
DERL-7 (IL-2 2.5 ng/mL) [2]	2.01	4.75	3.34	1.14	-11.8
IMC-1 (IL-2 20 ng/mL) [3]	0.44	0.22	0.39	1.15	17.8
KAI3 (IL-2 2.5 ng/mL) [4]	17.2	10.9	9.45	11.5	25.8
KHYG-1 (IL-2 2.5 ng/mL) [5]	-9.33	-11.3	-5.44	-3.66	4.19
NK-92 (IL-2 2.5 ng/mL) [6]	6.41	11.2	3.55	20.5	30.9
NK-YS (IL-2 2.5 ng/mL) [7]	2.79	-1.6	-0.2	4.55	19.6
NKL (IL-2 2.5 ng/mL) [8]	1.32	3.75	2.9	25.9	26
SNK-6 (IL-2 2.5 ng/mL) [9]	11.9	-22.5	-2.24	-13.2	5.06
YT (IL-2 2.5 ng/mL) [10]	-7.85	-8.54	-5.69	-2.75	18
[1]	-3.35	-7.15	-3.73	3.65	10.3
[11]	-1.72	15.7	6.17	6.91	4.11
[12]	22.9	25.1	18.7	23.7	20.5
[13]	4.21	8.86	8.54	1.11	5.24
[14]	-2.7	8.19	6.53	0	8.15

Details	drug sensitivity score
DERL-7 (IL-2 2.5 ng/mL) [16]	0
IMC-1 (IL-2 20 ng/mL) [17]	0.55
KAI3 (IL-2 2.5 ng/mL) [18]	0
KHYG-1 (IL-2 2.5 ng/mL) [19]	0
NK-92 (IL-2 2.5 ng/mL) [20]	3.57
NK-YS (IL-2 2.5 ng/mL) [21]	1.14
NKL (IL-2 2.5 ng/mL) [22]	4.59
SNK-6 (IL-2 2.5 ng/mL) [23]	0
YT (IL-2 2.5 ng/mL) [24]	0.33
[15]	0.01
[25]	0
[26]	0
[27]	0
[28]	0

CC(=O)O[C@H]1C(=O)[C@@]2(C)[C@H]([C@H](OC(=O)c3ccccc3)[C@]3(O)C[C@H](OC(=O)[C@H](O)[C@@H](NC(=O)c4ccccc4)c4ccccc4)C(C)=C1C3(C)C)[C@]1(OC(C)=O)CO[C@@H]1C[C@@H]2O [Paclitaxel] (max concentration tested 1000 nM)
percent inhibition of viability [%]
Details	0.1 nM	1 nM	10 nM	100 nM	1000 nM
DERL-7 (IL-2 2.5 ng/mL) [2]	2.23	-0.79	99.4	100	99.4
IMC-1 (IL-2 20 ng/mL) [3]	-7.88	-0.55	98.5	100	99.5
KAI3 (IL-2 2.5 ng/mL) [4]	-12.1	9.77	53	60.6	46.1
KHYG-1 (IL-2 2.5 ng/mL) [5]	-5.68	-0.23	77.2	106	99.2
NK-92 (IL-2 2.5 ng/mL) [6]	-18.6	-5.15	11.3	92.6	94
NK-YS (IL-2 2.5 ng/mL) [7]	-2.51	-5.4	71.3	77.6	64.6
NKL (IL-2 2.5 ng/mL) [8]	-17.5	-11.8	84.1	93.2	87.1
SNK-6 (IL-2 2.5 ng/mL) [9]	6.76	-3.54	75.5	79	72.6
YT (IL-2 2.5 ng/mL) [10]	-2.12	-2.24	82.5	102	93.8
[1]	0.76	-4.63	3.65	56.1	55.1
[11]	-14.5	-13.4	-1.12	-4.6	3.64
[12]	-38.3	-37.4	-2.05	-14	0.96
[13]	-2.11	-0.3	-9.26	1.41	14
[14]	-12.4	-15.8	-13.3	-0.71	10.2

Details	drug sensitivity score
DERL-7 (IL-2 2.5 ng/mL) [16]	30.3
IMC-1 (IL-2 20 ng/mL) [17]	30.2
KAI3 (IL-2 2.5 ng/mL) [18]	18.9
KHYG-1 (IL-2 2.5 ng/mL) [19]	26.9
NK-92 (IL-2 2.5 ng/mL) [20]	18.8
NK-YS (IL-2 2.5 ng/mL) [21]	22.8
NKL (IL-2 2.5 ng/mL) [22]	26.6
SNK-6 (IL-2 2.5 ng/mL) [23]	23.7
YT (IL-2 2.5 ng/mL) [24]	27.5
[15]	10.8
[25]	0
[26]	0
[27]	0.27
[28]	0
